Legend:
[1] = solubility in water of anti-inflammatory agents, alone and in formulations comprising MSM; format: physicochemical
Description: The increases in solubility in water of certain representative anti-inflammatory agents in formulations comprising MSM (about 5.4% w/w; range between 0.1 wt. % to about 15 wt. %, typically around 5%) are as follows: […]

[2] = at 79° F.; cited from earlier work
[3] = in formulations comprising MSM (about 5.4% w/w; range 0.1 wt. % to about 15 wt. %)
[4] = without MSM (starting value of the increase)

solubility in water [1, 3]	solubility in water [1, 4]	Compound	water solubility [2] [% w/v]
0.013 mg per ml of water	0.00065 mg per ml of water	COC(=O)c1ccccc1O [Methyl salicylate, methyl salicylate]	
~150 mg per ml of water	insoluble	CC(C)Cc1ccc(C(C)C(=O)O)cc1 (stereo not drawn) [Ibuprofen, ibuprofen]	
		CS(C)(=O)=O [MSM, methylsulfonylmethane]	34
50 mg per ml of water	0.004 mg per ml of water	O=C(O)Cc1ccccc1Nc1c(Cl)cccc1Cl [Diclofenac, diclofenac]	

Compound	solubility in water [1, 3]	solubility in water [1, 4]	water solubility [2] [% w/v]
C[C@@H]1C[C@H]2[C@@H]3CCC4=CC(=O)C=C[C@]4(C)[C@@]3(F)[C@@H](O)C[C@]2(C)[C@@]1(O)C(=O)CO [Dexamethsone, dexamethasone]	~250 mg per ml of water	insoluble	

From patent publication US20240382597A1, “FORMULATIONS OF ANTI-INFLAMMATORY AGENTS COMPRISING MSM WITH ENHANCED SOLUBILITY IN WATER” (LIVIONEX, Inc., priority 2021, published 2024)
